# T1: TG2 (Homo sapiens, UniProt P21980)
# T1 construct: purchased Zedira T022
# T1 sequence (P21980 1-687): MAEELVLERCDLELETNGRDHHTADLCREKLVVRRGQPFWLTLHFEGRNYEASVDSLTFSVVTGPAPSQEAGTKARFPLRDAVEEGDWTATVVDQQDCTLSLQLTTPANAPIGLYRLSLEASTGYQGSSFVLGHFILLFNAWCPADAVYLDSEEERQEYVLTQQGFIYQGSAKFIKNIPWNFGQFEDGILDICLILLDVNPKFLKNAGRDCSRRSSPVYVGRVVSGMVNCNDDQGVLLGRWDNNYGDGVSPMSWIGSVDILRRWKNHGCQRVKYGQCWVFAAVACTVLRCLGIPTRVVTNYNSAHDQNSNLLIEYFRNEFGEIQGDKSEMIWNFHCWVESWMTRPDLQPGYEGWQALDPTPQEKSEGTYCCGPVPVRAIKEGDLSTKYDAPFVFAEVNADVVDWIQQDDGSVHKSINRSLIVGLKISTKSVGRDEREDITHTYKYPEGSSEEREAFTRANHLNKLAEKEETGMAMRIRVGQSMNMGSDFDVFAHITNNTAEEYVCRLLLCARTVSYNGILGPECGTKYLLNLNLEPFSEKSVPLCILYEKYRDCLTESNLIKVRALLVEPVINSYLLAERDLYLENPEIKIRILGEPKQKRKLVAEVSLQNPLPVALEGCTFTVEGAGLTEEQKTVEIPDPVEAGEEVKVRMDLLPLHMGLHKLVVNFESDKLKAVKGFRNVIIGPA
# B1: TG2: transglutaminase 2 (T022, Zedira) (protein, UniProt P21980 2-687, looked up)
# Protein-glutamine …: AEELVLERCDLELETNGRDHHTADLCREKLVVRRGQPFWLTLHFEGRNYEASVDSLTFSVVTGPAPSQEAGTKARFPLRDAVEEGDWTATVVDQQDCTLSLQLTTPANAPIGLYRLSLEASTGYQGSSFVLGHFILLFNAWCPADAVYLDSEEERQEYVLTQQGFIYQGSAKFIKNIPWNFGQFEDGILDICLILLDVNPKFLKNAGRDCSRRSSPVYVGRVVSGMVNCNDDQGVLLGRWDNNYGDGVSPMSWIGSVDILRRWKNHGCQRVKYGQCWVFAAVACTVLRCLGIPTRVVTNYNSAHDQNSNLLIEYFRNEFGEIQGDKSEMIWNFHCWVESWMTRPDLQPGYEGWQALDPTPQEKSEGTYCCGPVPVRAIKEGDLSTKYDAPFVFAEVNADVVDWIQQDDGSVHKSINRSLIVGLKISTKSVGRDEREDITHTYKYPEGSSEEREAFTRANHLNKLAEKEETGMAMRIRVGQSMNMGSDFDVFAHITNNTAEEYVCRLLLCARTVSYNGILGPECGTKYLLNLNLEPFSEKSVPLCILYEKYRDCLTESNLIKVRALLVEPVINSYLLAERDLYLENPEIKIRILGEPKQKRKLVAEVSLQNPLPVALEGCTFTVEGAGLTEEQKTVEIPDPVEAGEEVKVRMDLLPLHMGLHKLVVNFESDKLKAVKGFRNVIIGPA
# Experiments:
# TG2 [1] = target: T1, TG2; experiment: Immunoblot of gliadin-transglutaminase complexes; format: biochemical; conditions: TG2 1 µM, ERW1041 100 µM, 30 min, 37°C, n = 3
# Description: TG2 or mTG (1 µM) was incubated with gliadin peptides (Table 2) with or without ERW1041 as TG2 blocker or the mTG‐blocker (100 µM) in Tris buffer. Biotinylated gliadin peptides or PTG was added to the solution at the indicated concentrations, and incubation was performed for 30 min at 37°C. The reaction was stopped by placing the samples on ice. Detailed description of the conditions for electrophoresis and blotting have been published elsewhere. After blocking the membrane for 1 h with 5% nonfat dry milk in phosphate buffered saline (PBS) + 2.5% tween, incubation with the primary antibody was performed at 4°C overnight (Table 3). The next day, incubation with the corresponding HRP‐conjugated secondary antibody was done. The crosslinking of biotinylated gliadin peptides was detected by streptavidin‐HRP alone. Visualization was done with the Super‐Signal West Femto kit (34096, Thermo Fisher Scientific, Langenselbold, Germany) for 5 min. Image processing and quantitation were performed using a ChemiDoc XRS+ imager and Image Lab software (BioRad Laboratories, Feldkirchen, Germany).
# Caco‐2 cells [2] = conditions: inhibitor 100 µM, TG2 100 nM, biotinylated P56-88 and P31-49; fluorometry
# TG2 [3] = target: T1, TG2; experiment: Extracellular crosslinking of 5BP to the Caco-2 cell surface by TG2; format: cell-based; conditions: 5BP 500 µM, TG2 100 nM, 1 h; dose-dependent; fluorometry and confocal microscopy
# Description: Confluent Caco‐2 cell monolayers were incubated with the transglutaminase substrate EZ‐link pentylamine‐biotin (5‐biotinamidopentylamine [5BP], 500 µM, 21345, Thermo Fisher Scientific) with or without mTG or TG2 (100 nM) in Tris buffer for 1 h. Corresponding transglutaminase inhibitors ERW1041 and mTG‐blocker were added to the solution at the indicated concentration. After fixation with 4% paraformaldehyde and blocking with 5% BSA, cells were incubated with streptavidin‐Alexa Fluor488 (S11223, 4 µg/mL, Thermo Fisher Scientific). Fluorometric quantitation was conducted using a FLUOstar Optima microplate reader (BMG Labtech, Ortenberg, Germany). For immunofluorescence microscopy, nuclei were stained with Hoechst dye (1:1000 in PBS, 44442, Thermo Fisher Scientific) for 10 min. Microscopy was done using a confocal laser scanning microscope (TE2000‐E, Nikon) and 20x Plan Apo […] objective. Image processing and quantitation were performed using ImageJ [32].
# TG2 [4] = target: T1, TG2; experiment: In vitro transamidation (crosslinking) of gliadin peptides, indirect ELISA, TG2; format: biochemical; conditions: inhibitor 100 µM, Fig. 1A
# Description: TG2 (10 nM, T022, Zedira, Darmstadt, Germany) or mTG (10 nM, T001, Zedira) were immobilized on a 96‐well plate (Sarstedt, Nümbrecht, Germany) in 50 mM Tris, 1 mM ethylenediamine tetraacetic acid (EDTA), 5 mM calcium chloride (pH 7.5) buffer containing 10 mM dithiotreitol (DTT, Merck KGaA, Darmstadt, Germany). After blocking with 2% bovine serum albumin (BSA, Carl Roth GmbH, Karlsruhe, Germany), the transglutaminase inhibitors ERW1041 (5095220001, Sigma–Aldrich, Darmstadt, Germany) and mTG‐blocker (C102, Zedira, each 100 µM) were applied according to protocol. Immobilized transglutaminases were incubated with biotin‐conjugated gliadin peptides or pepsin/trypsin digested gliadin (PTG, Table 2). Detection of crosslinked biotinylated gliadin peptides and PTG was done using horseradish peroxidase (HRP)‐conjugated streptavidin (1:2500, 405210, Biolegend, San Diego, CA, USA) or a specific gliadin antibody (1:1000, clone XGY4, Zedira) and the corresponding secondary HRP‐conjugated antibody (1:1000; sc‐516102, Santa Cruz Biotechnology, Dallas, TX, USA). The HRP‐substrate tetramethylbenzidine (TMB, T0440, Sigma–Aldrich, Darmstadt, Germany) was added, and photometric quantitation at 655 nm was performed after 15 min using a Clariostar Plus microplate reader (BMG Labtech, Ortenberg, Germany).
# Caco‐2 cells [5] = conditions: inhibitor 100 µM, TG2 100 nM; immunofluorescence microscopy
# Caco‐2 cells [6] = experiment: Cell viability, PrestoBlue HS assay; format: cell-based, human; conditions: used concentrations, 24 hours in culture medium; PrestoBlue HS 2 hours; Figure S1
# Description: The effect of transglutaminases on the viability of Caco‐2 cells was investigated using the resazurin‐based PrestoBlue HS assay (P50200, Thermo Fisher Scientific) as described elsewhere. Details are provided in the Supporting Information.
# Cells were incubated with mTG or TG2 at the indicated concentrations for 24 hours in culture medium. Incubation with PrestoBlue HS, diluted 1:10 in medium was performed for 2 hours at 37°C. Fluorometric examination was conducted using a Clariostar Plus microplate reader.
Molecule,Effect of inhibitor on transamidation of gliadin peptides to TG2 (TG2 [1]),Effect of inhibitor on TG2-mediated gliadin peptide uptake (Caco‐2 cells [2]),Effect of inhibitor on TG2-mediated crosslinking of 5BP to the cell surface (TG2 [3]),Effect of inhibitor on TG2-mediated crosslinking of PTG (TG2 [4]),Effect of inhibitor on TG2-enhanced cellular uptake of P56-88 (Caco‐2 cells [5]),Effect on cell viability (Caco‐2 cells [6])
O=C(NC[C@@H]1CC(Br)=NO1)[C@@H]1CCCN1C(=O)OCc1cnc2ccccc2c1 [ERW1041],significantly reduced transamidation of all gliadin peptides to TG2,to the baseline level,reduced crosslinking of 5BP,significantly reduced crosslinking of PTG,reduced cellular peptide uptake to the baseline level,
B1,,,,,,did not affect cell viability

# Reference: paper PMC12581733, “Microbial Transglutaminase Increases Uptake and Translocation of Gliadin Peptides in the Human Intestinal Epithelium” (Molecular Nutrition & Food Research, 2025)
